Experimental data as given in US12606541B2, “PPARg modulators and methods of use” (Eisai R&D Management Co., Ltd., priority 2020, dated 2026).

Legend:
His6-TEV-PPARγ-(234-505) = molecular target: T1, His6-TEV-PPARγ-(234-505) (Homo sapiens, UniProt P37231); test: TR-FRET Assay to Measure Co-R Peptide Recruitment to PPARγ; assay type: biochemical; conditions: Co-R peptide (SMRT-ID2) recruitment; top final concentration 20 μM; read-out: TR-FRET i-Ag; AC50
T1 construct: The His6-TEV-PPARγ-(234-505) protein for assay was expressed and purified; TEV cleavage site (N); made in house
T1 sequence (P37231 234-505): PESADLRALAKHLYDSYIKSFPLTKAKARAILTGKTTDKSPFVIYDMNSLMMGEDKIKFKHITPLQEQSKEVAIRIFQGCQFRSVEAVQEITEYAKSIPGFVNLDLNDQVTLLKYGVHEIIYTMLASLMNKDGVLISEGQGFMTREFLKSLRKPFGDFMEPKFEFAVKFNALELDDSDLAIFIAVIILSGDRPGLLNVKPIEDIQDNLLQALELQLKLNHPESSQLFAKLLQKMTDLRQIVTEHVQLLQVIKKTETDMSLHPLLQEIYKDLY
Summary of the method: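 Corepressor recruitment is measured by adding terbium-labeled anti-His antibody and FITC SMRT-ID2 peptide, at 5 and 200 nM final, after a 20-minute room-temperature protein–compound incubation. After one further hour, signal is converted to percent response between DMSO and 500 nM T0070907 wells.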

UM-UC-9 engineered cells = test: Cell proliferation / short-term viability assay, CellTiter-Glo 144 h; assay type: cell-based, human; conditions: Homo sapiens, UM-UC-9, 144 h, read-out: CTGlo 144 h UMUC9.5, G150
Summary of the method: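 Viability read by CellTiter-Glo 2.0 luminescence at day 7 versus DMSO-vehicle wells and a T0 plate measured on day 0. Cells: UM-UC-9 engineered assay-ready stocks, 500 cells/well in high-glucose DMEM with 10% FBS, 37° C, 5% CO2.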

Row | Compound | AC50 (His6-TEV-PPARγ-(234-505)) | IC50 (UM-UC-9 engineered cells)
1 | COc1cc(-c2cc(C(=O)N3CCC(C(=O)NCc4ccc(F)cn4)CC3)n[nH]2)c(Cl)cn1 [Example 127, 1-(5-(5-chloro-2-methoxypyridin-4-yl)-1H-pyrazole-3-carbonyl)-N-((5-fluoropyridin-2-yl)methyl)piperidine-4-carboxamide] | 644 nM | 2930 nM
2 | COc1cc(-c2cc(C(=O)N3CCC(C(=O)NC4(C#N)CCC4)CC3)n[nH]2)c(Cl)cn1 [Example 128, 1-(5-(5-chloro-2-methoxypyridin-4-yl)-1H-pyrazole-3-carbonyl)-N-(1-cyanocyclobutyl)piperidine-4-carboxamide] | 864 nM | 2560 nM
3 | COc1cc(-c2cc(C(=O)N3CCC(C(=O)NCc4cccc(C(F)(F)F)n4)CC3)n[nH]2)c(Cl)cn1 [Example 129, 1-(5-(5-chloro-2-methoxypyridin-4-yl)-1H-pyrazole-3-carbonyl)-N-((6 (trifluoromethyl)pyridin-2-yl)methyl)piperidine-4-carboxamide] | 273 nM | 1020 nM
4 | COc1cc(-c2cc(C(=O)N3CCC(C(=O)NCc4ncccc4C(F)(F)F)CC3)n[nH]2)c(Cl)cn1 [Example 130, 1-(5-(5-chloro-2-methoxypyridin-4-yl)-1H-pyrazole-3-carbonyl)-N-((3-(trifluoromethyl)pyridin-2-yl)methyl)piperidine-4-carboxamide] | 75.9 nM | 685 nM
5 | COc1cc(-c2cc(C(=O)N3CCC(C(=O)NCc4cnccc4C)CC3)n[nH]2)c(Cl)cn1 [Example 131, 1-(5-(5-chloro-2-methoxypyridin-4-yl)-1H-pyrazole-3-carbonyl)-N-((4-methylpyridin-3-yl)methyl)piperidine-4-carboxamide] | 494 nM | 2610 nM
6 | COc1cc(-c2cc(C(=O)N3CCC(C(=O)N[C@@H]4C[C@H]4c4ccccc4)CC3)n[nH]2)c(Cl)cn1 [Example 133, 1-(5-(5-chloro-2-methoxypyridin-4-yl)-1H-pyrazole-3-carbonyl)-N-((1R,2S)-2-phenylcyclopropyl)piperidine-4-carboxamide] | 292 nM | 1740 nM
7 | COc1cc(-c2cc(C(=O)N3CCC(C(=O)NCC4(O)CCCCC4)CC3)n[nH]2)c(Cl)cn1 [Example 134, 1-(5-(5-chloro-2-methoxypyridin-4-yl)-1H-pyrazole-3-carbonyl)-N-((1-hydroxycyclohexyl)methyl)piperidine-4-carboxamide] | 238 nM | 1090 nM
8 | COc1cc(-c2cc(C(=O)N3CCC(C(=O)NCc4cnc(C)o4)CC3)n[nH]2)c(Cl)cn1 [Example 136, 1-(5-(5-chloro-2-methoxypyridin-4-yl)-1H-pyrazole-3-carbonyl)-N-((2-methyloxazol-5-yl)methyl)piperidine-4-carboxamide] | 887 nM | 6100 nM
9 | COc1cc(-c2cc(C(=O)N3CCC(C(=O)NCc4cccc5ccnn45)CC3)n[nH]2)c(Cl)cn1 [Example 137, 1-(5-(5-chloro-2-methoxypyridin-4-yl)-1H-pyrazole-3-carbonyl)-N-(pyrazolo[1,5-a]pyridin-7-ylmethyl)piperidine-4-carboxamide] | 130 nM | 678 nM
10 | COc1cc(-c2cc(C(=O)N3CCC(C(=O)NCc4ncc(Cl)cn4)CC3)n[nH]2)c(Cl)cn1 [Example 138, 1-(5-(5-chloro-2-methoxypyridin-4-yl)-1H-pyrazole-3-carbonyl)-N-((5-chloropyrimidin-2-yl)methyl)piperidine-4-carboxamide] | 501 nM | 1470 nM
11 | COc1cc(-c2cc(C(=O)N3CCC(C(=O)NCc4ccc(C(F)(F)F)cn4)CC3)n[nH]2)c(Cl)cn1 [Example 139, 1-(5-(5-chloro-2-methoxypyridin-4-yl)-1H-pyrazole-3-carbonyl)-N-((5-(trifluoromethyl)pyridin-2-yl)methyl)piperidine-4-carboxamide] | 336 nM | 1790 nM
